The NIST ThermoML archive (doi:10.1016/j.jct.2012.05.002)
± gives the expanded uncertainty stated by the source.

Assay: Boiling temperature at pressure P
Settings: 101.3 kPa; Liquid; Closed cell (Static) method

Structure (SMILES): COC(=O)OC [dimethyl carbonate]
- Boiling temperature at pressure P: 64.69 ± 0.11 °C

Structure (SMILES): CO [methanol]
- Boiling temperature at pressure P: 90.26 ± 0.11 °C
